# Laboratory results from publication PMC6886798, “Expression of myeloid Src-family kinases is associated with poor prognosis in AML and influences Flt3-ITD kinase inhibitor acquired resistance” (PLoS ONE, 2019).
# Experiments:
# Test in all cases: KINOMEscan
# Assay type in all cases: binding
# Settings in all cases: 1.0 µM
# [1] = target: T1, ABL1(E255K)-phosphorylated (Homo sapiens, UniProt P00519, E255K)
# T1 construct: purchased Eurofins/DiscoverX KINOMEscan scanMAX
# Protocol: (§1) Kinase retention to the immobilized ligand is then measured using quantitative real-time PCR for each kinase-specific DNA barcode.
# [2] = target: T2, ABL1(F317I)-nonphosphorylated (Homo sapiens, UniProt P00519, F317I)
# T2 construct: purchased Eurofins/DiscoverX KINOMEscan scanMAX
# Protocol: as §1
# [3] = target: T3, AMPK-alpha2 (Homo sapiens, UniProt P54646)
# T3 construct: purchased Eurofins/DiscoverX KINOMEscan scanMAX
# Protocol: as §1
# [4] = target: T4, BUB1 (Homo sapiens, UniProt O43683)
# T4 construct: purchased Eurofins/DiscoverX KINOMEscan scanMAX
# T4 sequence (O43683 whole entry): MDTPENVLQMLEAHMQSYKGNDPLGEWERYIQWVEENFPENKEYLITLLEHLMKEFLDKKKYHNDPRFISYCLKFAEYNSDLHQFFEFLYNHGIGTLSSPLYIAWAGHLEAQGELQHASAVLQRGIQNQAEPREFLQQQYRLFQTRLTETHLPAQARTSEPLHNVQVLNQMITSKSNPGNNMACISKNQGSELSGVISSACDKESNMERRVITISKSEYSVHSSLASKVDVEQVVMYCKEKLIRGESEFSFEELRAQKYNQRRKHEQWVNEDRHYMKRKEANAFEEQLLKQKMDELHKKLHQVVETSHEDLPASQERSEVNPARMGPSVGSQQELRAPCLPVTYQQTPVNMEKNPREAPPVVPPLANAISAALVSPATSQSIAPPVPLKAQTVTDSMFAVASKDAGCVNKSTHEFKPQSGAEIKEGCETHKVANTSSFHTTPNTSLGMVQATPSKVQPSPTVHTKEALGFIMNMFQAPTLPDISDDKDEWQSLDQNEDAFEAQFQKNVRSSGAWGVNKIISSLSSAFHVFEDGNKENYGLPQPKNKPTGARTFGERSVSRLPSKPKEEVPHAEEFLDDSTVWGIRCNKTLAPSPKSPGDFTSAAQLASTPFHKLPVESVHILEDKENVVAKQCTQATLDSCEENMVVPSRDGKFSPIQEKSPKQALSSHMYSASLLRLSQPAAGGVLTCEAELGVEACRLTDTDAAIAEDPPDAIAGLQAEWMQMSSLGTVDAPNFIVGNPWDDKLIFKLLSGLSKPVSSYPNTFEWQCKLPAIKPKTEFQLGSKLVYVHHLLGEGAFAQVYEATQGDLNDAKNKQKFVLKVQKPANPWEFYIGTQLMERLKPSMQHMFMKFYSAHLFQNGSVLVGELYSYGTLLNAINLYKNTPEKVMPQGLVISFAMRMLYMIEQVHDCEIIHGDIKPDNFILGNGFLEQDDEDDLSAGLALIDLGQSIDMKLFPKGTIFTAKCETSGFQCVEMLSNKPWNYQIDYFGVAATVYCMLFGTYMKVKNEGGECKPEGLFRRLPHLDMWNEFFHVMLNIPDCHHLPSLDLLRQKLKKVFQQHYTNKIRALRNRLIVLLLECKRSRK
# Protocol: as §1
# [5] = target: T5, CAMK1 (Homo sapiens, UniProt Q14012)
# T5 construct: purchased Eurofins/DiscoverX KINOMEscan scanMAX
# Protocol: as §1
# [6] = target: T6, CAMK2D (Homo sapiens, UniProt Q13557)
# T6 construct: purchased Eurofins/DiscoverX KINOMEscan scanMAX
# T6 sequence (Q13557 whole entry): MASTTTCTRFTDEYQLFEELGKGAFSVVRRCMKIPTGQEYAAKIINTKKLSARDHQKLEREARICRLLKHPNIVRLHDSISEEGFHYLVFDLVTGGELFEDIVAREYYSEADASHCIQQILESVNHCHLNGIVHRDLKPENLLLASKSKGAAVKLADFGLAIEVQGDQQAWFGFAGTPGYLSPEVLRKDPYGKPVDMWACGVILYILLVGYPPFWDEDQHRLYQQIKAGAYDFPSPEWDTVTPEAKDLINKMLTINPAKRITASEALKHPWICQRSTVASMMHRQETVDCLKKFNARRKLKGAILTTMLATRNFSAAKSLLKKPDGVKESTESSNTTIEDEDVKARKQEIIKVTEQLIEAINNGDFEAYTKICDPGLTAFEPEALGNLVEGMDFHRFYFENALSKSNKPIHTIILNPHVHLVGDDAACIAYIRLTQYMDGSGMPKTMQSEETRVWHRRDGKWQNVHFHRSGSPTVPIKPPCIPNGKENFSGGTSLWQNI
# Protocol: as §1
# [7] = target: T7, CDK5 (Homo sapiens, UniProt Q00535)
# T7 construct: purchased Eurofins/DiscoverX KINOMEscan scanMAX
# T7 sequence (Q00535 whole entry): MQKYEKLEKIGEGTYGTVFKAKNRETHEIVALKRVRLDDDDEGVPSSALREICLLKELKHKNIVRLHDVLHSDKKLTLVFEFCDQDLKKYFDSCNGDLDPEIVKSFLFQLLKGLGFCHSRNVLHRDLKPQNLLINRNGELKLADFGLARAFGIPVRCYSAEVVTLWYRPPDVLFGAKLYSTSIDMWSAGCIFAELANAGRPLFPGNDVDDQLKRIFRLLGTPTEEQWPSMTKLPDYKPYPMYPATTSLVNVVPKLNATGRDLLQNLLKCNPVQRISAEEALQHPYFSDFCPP
# Protocol: as §1
# [8] = target: T8, CDK9 (Homo sapiens, UniProt P50750)
# T8 construct: purchased Eurofins/DiscoverX KINOMEscan scanMAX
# Protocol: as §1
# [9] = target: T9, CSNK2A1 (Homo sapiens, UniProt P68400)
# T9 construct: purchased Eurofins/DiscoverX KINOMEscan scanMAX
# T9 sequence (P68400 whole entry): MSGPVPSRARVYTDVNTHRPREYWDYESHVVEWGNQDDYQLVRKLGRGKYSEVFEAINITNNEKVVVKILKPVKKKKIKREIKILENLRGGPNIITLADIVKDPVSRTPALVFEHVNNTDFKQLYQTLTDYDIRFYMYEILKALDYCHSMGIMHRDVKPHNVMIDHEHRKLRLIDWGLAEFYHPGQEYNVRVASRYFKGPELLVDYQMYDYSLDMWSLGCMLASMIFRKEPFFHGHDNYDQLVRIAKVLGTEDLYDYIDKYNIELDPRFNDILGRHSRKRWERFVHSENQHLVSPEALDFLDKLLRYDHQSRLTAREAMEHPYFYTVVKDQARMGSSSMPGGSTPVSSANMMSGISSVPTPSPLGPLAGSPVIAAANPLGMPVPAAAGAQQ
# Protocol: as §1
# [10] = target: T10, DMPK (Homo sapiens, UniProt Q09013)
# T10 construct: purchased Eurofins/DiscoverX KINOMEscan scanMAX
# Protocol: as §1
# [11] = target: T11, EPHA3 (Homo sapiens, UniProt P29320)
# T11 construct: purchased Eurofins/DiscoverX KINOMEscan scanMAX
# Protocol: as §1
# [12] = target: T12, EPHA5 (Homo sapiens, UniProt P54756)
# T12 construct: purchased Eurofins/DiscoverX KINOMEscan scanMAX
# Protocol: as §1
# [13] = target: T13, ERK3 (Homo sapiens, UniProt Q16659)
# T13 construct: purchased Eurofins/DiscoverX KINOMEscan scanMAX
# Protocol: as §1
# [14] = target: T14, ERK4 (Homo sapiens, UniProt P31152)
# T14 construct: purchased Eurofins/DiscoverX KINOMEscan scanMAX
# Protocol: as §1
# [15] = target: T15, FAK (Homo sapiens, UniProt Q05397)
# T15 construct: purchased Eurofins/DiscoverX KINOMEscan scanMAX
# Protocol: as §1
# [16] = target: T16, FLT3-autoinhibited (Homo sapiens, UniProt P36888)
# T16 construct: purchased Eurofins/DiscoverX KINOMEscan scanMAX
# Protocol: as §1
# [17] = target: T17, JNK1 (Homo sapiens, UniProt P45983)
# T17 construct: purchased Eurofins/DiscoverX KINOMEscan scanMAX
# Protocol: as §1
# [18] = target: T18, MAPKAPK2 (Homo sapiens, UniProt P49137)
# T18 construct: purchased Eurofins/DiscoverX KINOMEscan scanMAX
# Protocol: as §1
# [19] = target: T19, MAST1 (Homo sapiens, UniProt Q9Y2H9)
# T19 construct: purchased Eurofins/DiscoverX KINOMEscan scanMAX
# Protocol: as §1
# [20] = target: T20, MEK6 (Homo sapiens, UniProt P52564)
# T20 construct: purchased Eurofins/DiscoverX KINOMEscan scanMAX
# Protocol: as §1
# [21] = target: T21, MUSK (Homo sapiens, UniProt O15146)
# T21 construct: purchased Eurofins/DiscoverX KINOMEscan scanMAX
# Protocol: as §1
# [22] = target: T22, MYLK2 (Homo sapiens, UniProt Q9H1R3)
# T22 construct: purchased Eurofins/DiscoverX KINOMEscan scanMAX
# Protocol: as §1
# [23] = target: T23, NEK5 (Homo sapiens, UniProt Q6P3R8)
# T23 construct: purchased Eurofins/DiscoverX KINOMEscan scanMAX
# Protocol: as §1
# [24] = target: T24, PAK1 (Homo sapiens, UniProt Q13153)
# T24 construct: purchased Eurofins/DiscoverX KINOMEscan scanMAX
# Protocol: as §1
# [25] = target: T25, PCTK3 (Homo sapiens, UniProt Q07002)
# T25 construct: purchased Eurofins/DiscoverX KINOMEscan scanMAX
# Protocol: as §1
# [26] = target: T26, PDPK1 (Homo sapiens, UniProt O15530)
# T26 construct: purchased Eurofins/DiscoverX KINOMEscan scanMAX
# Protocol: as §1
# [27] = target: T27, PIK3CA(C420R) (Homo sapiens, UniProt P42336, C420R)
# T27 construct: purchased Eurofins/DiscoverX KINOMEscan scanMAX
# Protocol: as §1
# [28] = target: T28, PIK3CA(H1047L) (Homo sapiens, UniProt P42336, H1047L)
# T28 construct: purchased Eurofins/DiscoverX KINOMEscan scanMAX
# Protocol: as §1
# [29] = target: T29, PIK3CA(M1043I) (Homo sapiens, UniProt P42336, M1043I)
# T29 construct: purchased Eurofins/DiscoverX KINOMEscan scanMAX
# Protocol: as §1
# [30] = target: T30, PKAC-alpha (Homo sapiens, UniProt P17612)
# T30 construct: purchased Eurofins/DiscoverX KINOMEscan scanMAX
# Protocol: as §1
# [31] = target: T31, PLK4 (Homo sapiens, UniProt O00444)
# T31 construct: purchased Eurofins/DiscoverX KINOMEscan scanMAX
# Protocol: as §1
# [32] = target: T32, RIOK1 (Homo sapiens, UniProt Q9BRS2)
# T32 construct: purchased Eurofins/DiscoverX KINOMEscan scanMAX
# Protocol: as §1
# [33] = target: T33, RIPK2 (Homo sapiens, UniProt O43353)
# T33 construct: purchased Eurofins/DiscoverX KINOMEscan scanMAX
# T33 sequence (O43353 whole entry): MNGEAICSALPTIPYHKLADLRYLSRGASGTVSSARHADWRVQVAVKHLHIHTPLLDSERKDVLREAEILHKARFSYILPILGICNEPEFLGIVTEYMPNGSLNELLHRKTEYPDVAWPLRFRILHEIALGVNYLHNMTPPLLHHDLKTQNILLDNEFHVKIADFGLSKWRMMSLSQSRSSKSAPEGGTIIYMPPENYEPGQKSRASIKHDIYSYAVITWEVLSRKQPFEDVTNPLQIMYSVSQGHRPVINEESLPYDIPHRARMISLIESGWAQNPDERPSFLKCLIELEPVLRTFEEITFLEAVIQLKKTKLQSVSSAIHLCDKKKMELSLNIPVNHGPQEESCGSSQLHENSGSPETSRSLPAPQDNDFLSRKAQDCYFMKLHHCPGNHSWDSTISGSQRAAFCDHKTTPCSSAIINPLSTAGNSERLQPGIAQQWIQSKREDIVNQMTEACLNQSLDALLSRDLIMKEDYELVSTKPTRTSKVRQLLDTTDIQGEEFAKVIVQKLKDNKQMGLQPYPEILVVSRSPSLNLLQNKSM
# Protocol: as §1
# [34] = target: T34, RSK2(Kin.Dom.2-C-terminal) (Homo sapiens, UniProt P51812)
# T34 construct: RSK2(Kin.Dom.2-C-terminal); purchased Eurofins/DiscoverX KINOMEscan scanMAX
# Protocol: as §1
# [35] = target: T35, TLK2 (Homo sapiens, UniProt Q86UE8)
# T35 construct: purchased Eurofins/DiscoverX KINOMEscan scanMAX
# Protocol: as §1
# [36] = target: T36, TRPM6 (Homo sapiens, UniProt Q9BX84)
# T36 construct: DNA tag (qPCR barcode); purchased Eurofins/DiscoverX KINOMEscan scanMAX
# Protocol: as §1
# [37] = target: T37, TYK2(JH2domain-pseudokinase) (Homo sapiens, UniProt P29597)
# T37 construct: TYK2(JH2domain-pseudokinase); DNA tag (qPCR barcode); purchased Eurofins/DiscoverX KINOMEscan scanMAX
# Protocol: as §1
# [38] = target: T38, ULK1 (Homo sapiens, UniProt O75385)
# T38 construct: DNA tag (qPCR barcode); purchased Eurofins/DiscoverX KINOMEscan scanMAX
# T38 sequence (O75385 whole entry): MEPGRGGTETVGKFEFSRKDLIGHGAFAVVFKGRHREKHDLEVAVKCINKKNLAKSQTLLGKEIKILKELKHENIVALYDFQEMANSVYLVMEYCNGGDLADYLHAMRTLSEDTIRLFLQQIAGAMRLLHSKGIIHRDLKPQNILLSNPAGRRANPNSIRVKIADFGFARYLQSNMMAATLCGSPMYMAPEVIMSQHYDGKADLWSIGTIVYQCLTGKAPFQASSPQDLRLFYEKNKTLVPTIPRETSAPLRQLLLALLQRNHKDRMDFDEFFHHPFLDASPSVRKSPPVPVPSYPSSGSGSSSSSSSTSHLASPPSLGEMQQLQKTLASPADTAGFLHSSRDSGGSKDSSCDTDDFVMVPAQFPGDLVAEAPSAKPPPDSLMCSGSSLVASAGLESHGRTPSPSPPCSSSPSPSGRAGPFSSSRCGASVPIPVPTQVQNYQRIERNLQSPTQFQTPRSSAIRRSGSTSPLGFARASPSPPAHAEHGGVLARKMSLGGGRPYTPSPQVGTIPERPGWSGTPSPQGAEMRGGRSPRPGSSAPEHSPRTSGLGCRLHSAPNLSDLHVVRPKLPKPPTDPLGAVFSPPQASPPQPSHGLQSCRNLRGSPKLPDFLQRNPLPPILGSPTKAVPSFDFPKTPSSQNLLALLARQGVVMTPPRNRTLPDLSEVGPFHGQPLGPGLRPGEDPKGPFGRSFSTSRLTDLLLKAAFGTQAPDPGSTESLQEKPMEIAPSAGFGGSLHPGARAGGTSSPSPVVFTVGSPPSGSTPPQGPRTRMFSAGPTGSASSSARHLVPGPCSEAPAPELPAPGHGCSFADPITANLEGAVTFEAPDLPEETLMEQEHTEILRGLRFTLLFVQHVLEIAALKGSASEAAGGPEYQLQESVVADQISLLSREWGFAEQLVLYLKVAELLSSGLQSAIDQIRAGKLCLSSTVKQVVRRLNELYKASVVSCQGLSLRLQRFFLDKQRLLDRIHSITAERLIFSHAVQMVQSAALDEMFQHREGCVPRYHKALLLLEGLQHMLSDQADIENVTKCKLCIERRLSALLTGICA
# Protocol: as §1
# [39] = target: T39, ULK2 (Homo sapiens, UniProt Q8IYT8)
# T39 construct: DNA tag (qPCR barcode); purchased Eurofins/DiscoverX KINOMEscan scanMAX
# T39 sequence (Q8IYT8 whole entry): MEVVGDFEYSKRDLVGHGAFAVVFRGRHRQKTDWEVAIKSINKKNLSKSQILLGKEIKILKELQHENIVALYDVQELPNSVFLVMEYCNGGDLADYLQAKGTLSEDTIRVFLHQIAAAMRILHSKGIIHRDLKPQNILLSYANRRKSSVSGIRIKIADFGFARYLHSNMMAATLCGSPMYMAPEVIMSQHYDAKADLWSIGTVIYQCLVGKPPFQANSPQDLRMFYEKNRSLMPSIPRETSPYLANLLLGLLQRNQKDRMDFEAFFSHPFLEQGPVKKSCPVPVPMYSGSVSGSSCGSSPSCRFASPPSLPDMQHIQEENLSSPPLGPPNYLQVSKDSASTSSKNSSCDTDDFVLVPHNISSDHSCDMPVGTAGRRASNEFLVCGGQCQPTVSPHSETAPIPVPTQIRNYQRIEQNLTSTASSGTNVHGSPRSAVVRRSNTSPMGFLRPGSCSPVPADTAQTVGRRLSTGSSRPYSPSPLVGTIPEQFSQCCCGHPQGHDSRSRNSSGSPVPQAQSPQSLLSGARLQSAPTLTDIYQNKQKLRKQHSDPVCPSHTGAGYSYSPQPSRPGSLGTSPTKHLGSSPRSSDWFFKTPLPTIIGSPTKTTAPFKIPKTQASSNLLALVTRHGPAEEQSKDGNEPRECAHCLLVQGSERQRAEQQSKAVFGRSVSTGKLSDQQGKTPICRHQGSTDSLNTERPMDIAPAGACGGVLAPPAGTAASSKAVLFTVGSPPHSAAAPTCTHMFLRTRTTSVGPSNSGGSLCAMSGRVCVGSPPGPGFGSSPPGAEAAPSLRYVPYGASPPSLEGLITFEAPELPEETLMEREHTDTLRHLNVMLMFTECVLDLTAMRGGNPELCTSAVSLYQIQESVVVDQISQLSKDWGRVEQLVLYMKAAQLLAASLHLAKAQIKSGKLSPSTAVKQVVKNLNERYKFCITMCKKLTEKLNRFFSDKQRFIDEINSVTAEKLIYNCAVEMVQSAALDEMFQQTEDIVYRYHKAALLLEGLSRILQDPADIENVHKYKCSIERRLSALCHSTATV
# Protocol: as §1
# [40] = target: T40, YANK2 (Homo sapiens, UniProt Q9NY57)
# T40 construct: purchased Eurofins/DiscoverX (KINOMEscan scanMAX service)
# Protocol: as §1
compound,measurement,setting,value
CN1CCN(C2CCC(n3cc(-c4ccc(Oc5ccccc5)cc4)c4c(N)ncnc43)CC2)CC1 (stereo not shown) [A-419259],% Control,[1],0.5%
same,% Control,[2],2.5%
same,% Control,[3],42%
same,% Control,[4],100%
same,% Control,[5],92%
same,% Control,[6],100%
same,% Control,[7],83%
same,% Control,[8],65%
same,% Control,[9],100%
same,% Control,[10],100%
same,% Control,[11],95%
same,% Control,[12],80%
same,% Control,[13],100%
same,% Control,[14],56%
same,% Control,[15],72%
same,% Control,[16],3.4%
same,% Control,[17],95%
same,% Control,[18],100%
same,% Control,[19],64%
same,% Control,[20],98%
same,% Control,[21],100%
same,% Control,[22],95%
same,% Control,[23],100%
same,% Control,[24],55%
same,% Control,[25],100%
same,% Control,[26],100%
same,% Control,[27],100%
same,% Control,[28],98%
same,% Control,[29],100%
same,% Control,[30],100%
same,% Control,[31],100%
same,% Control,[32],77%
same,% Control,[33],3.6%
same,% Control,[34],100%
same,% Control,[35],100%
same,% Control,[36],100%
same,% Control,[37],95%
same,% Control,[38],99%
same,% Control,[39],47%
same,% Control,[40],30%
